Experimental data: ChEMBL document CHEMBL1201862, “PubChem BioAssay data set” (2004)
Blank lines part the entries; values can stand above or below the molecule they belong to. The source made the active and inactive calls.

Key:
[1] = target: Melanocortin receptor 4 (Homo sapiens, UniProt P32245); assay: MC4R antagonist potency on cAMP, dose response, cell-based, TR-FRET, biased antagonists (AID 602298); format: functional;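 further: antagonist potency against agonist-stimulated cAMP production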
[2] = nonselective inhibitors of cellular cAMP signaling, dose response, counter-screen for MC4R biased antagonist project, cell-based, TR-FRET cAMP detection (AID 602305); format: functional;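 further: U2OS cells stimulated with forskolin near its EC80 as the cAMP inducer; potency is for inhibition of forskolin-stimulated cAMP signaling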
[3] = target: Tumor necrosis factor (Homo sapiens, UniProt P01375); assay: TNFa-triggered NF-kB activation inhibitors, SAR follow-up, cell-based, revised (AID 2337); format: functional
[4] = system: HEK293; assay: cells; conditions: Homo sapiens
[5] = target: T1, Nucleotide-binding oligomerization domain-containing protein 1 (Homo sapiens, UniProt Q9Y239); assay: NOD1 signaling inhibitors, SAR follow-up, revised (AID 2333); format: functional
T1 sequence (Q9Y239 whole entry): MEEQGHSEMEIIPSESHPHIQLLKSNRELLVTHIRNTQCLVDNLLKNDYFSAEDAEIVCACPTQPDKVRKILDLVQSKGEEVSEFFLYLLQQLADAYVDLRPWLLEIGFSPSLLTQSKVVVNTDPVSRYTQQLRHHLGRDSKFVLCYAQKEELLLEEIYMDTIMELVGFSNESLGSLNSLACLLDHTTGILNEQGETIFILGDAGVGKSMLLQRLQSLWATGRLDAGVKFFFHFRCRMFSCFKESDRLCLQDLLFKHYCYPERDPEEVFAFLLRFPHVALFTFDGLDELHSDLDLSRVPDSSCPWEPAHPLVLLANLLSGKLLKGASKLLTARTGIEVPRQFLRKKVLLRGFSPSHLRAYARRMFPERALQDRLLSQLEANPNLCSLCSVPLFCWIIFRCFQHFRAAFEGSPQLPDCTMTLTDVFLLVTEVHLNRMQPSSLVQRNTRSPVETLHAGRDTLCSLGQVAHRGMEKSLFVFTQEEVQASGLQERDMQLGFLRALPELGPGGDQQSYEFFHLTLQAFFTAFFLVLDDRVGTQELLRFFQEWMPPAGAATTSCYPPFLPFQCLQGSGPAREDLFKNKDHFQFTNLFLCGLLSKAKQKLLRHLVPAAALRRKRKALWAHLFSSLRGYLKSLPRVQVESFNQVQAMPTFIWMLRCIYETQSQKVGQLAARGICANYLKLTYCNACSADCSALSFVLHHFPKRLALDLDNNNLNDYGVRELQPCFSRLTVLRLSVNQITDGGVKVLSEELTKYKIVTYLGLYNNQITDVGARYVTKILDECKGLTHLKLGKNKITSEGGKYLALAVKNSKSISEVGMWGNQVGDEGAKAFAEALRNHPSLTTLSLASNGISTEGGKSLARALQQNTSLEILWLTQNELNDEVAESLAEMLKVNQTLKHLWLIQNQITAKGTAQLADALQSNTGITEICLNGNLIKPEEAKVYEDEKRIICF

[6] = cells; format: functional, cell-based; conditions: HEK-CNG
[7] = system: INS1; assay: beta cell apoptosis inhibitors, cytokine rescue, dose response, luminescence, retest (AID 449756); format: functional, cell-based; conditions: Rattus norvegicus;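 further: cell death triggered by IL-1 beta plus TNF-alpha plus IFN-gamma mixture; protective hits raise ATP signal compared with cytokine alone wells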
[8] = cytotoxicity in HEK-293T NF-kB-Luc cells, dose response, cytotoxicity control for B/T-cell NF-kB inhibitor project, cell-based, uHTS hits (AID 489019); format: functional;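 further: IC50 reflects cytotoxicity as loss of cell viability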
[9] = target: T2, Galanin receptor type 3 (Homo sapiens, UniProt O60755); assay: Fluorescence-based cell-based primary high throughput dose response assay to identify antagonists of the Galanin Receptor 3 (GalR3).; format: functional
T2 sequence (O60755 whole entry): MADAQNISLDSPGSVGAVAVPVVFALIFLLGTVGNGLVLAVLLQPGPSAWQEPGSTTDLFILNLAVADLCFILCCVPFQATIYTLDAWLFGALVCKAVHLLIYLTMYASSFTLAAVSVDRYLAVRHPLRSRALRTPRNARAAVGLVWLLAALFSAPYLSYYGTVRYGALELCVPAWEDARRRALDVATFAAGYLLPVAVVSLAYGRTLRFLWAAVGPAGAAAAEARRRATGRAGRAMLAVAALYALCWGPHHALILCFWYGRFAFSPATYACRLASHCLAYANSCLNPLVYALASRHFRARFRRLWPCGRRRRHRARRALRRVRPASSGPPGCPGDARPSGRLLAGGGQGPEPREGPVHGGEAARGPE

[10] = system: Jurkat; assay: antigen receptor-induced NF-kB inhibitors, dose response, Jurkat, luciferase reporter, luminescence, B- and T-cell (AID 489004); format: functional, cell-based; conditions: Homo sapiens;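 further: NF-kB luciferase reporter Jurkat cells stimulated with PMA plus ionomycin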
[11] = target: DNA repair and recombination protein RAD54-like (Homo sapiens, UniProt Q92698); assay: inhibitors of human RAD54 branch migration, confirmation, biochemical, fluorescence, cherry-picked samples, dose series (AID 651657); format: functional
[12] = target: 26S proteasome non-ATPase regulatory subunit 14 (Homo sapiens, UniProt O00487); assay: inhibition of proteasome subunit RPN11 – biochemical, fluorescence polarization, uHTS hits, confirmation (AID 602368); format: functional
[13] = inhibitors of intracellular T. cruzi replication, confirmation, NIH3T3 host cells, beta-gal luminescence (AID 2044); format: functional, cell-based;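 further: intracellular parasites grown in NIH/3T3 mouse fibroblasts as host cells; luminescent beta-galactosidase reporter signal from transgenic T. cruzi replicating inside host cells; inhibitors lower the luminescence signal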
[14] = cytotoxicity toward NIH3T3 fibroblasts, dose response, counter-screen, cell-based, ATP luminescence, mouse fibroblasts (AID 2010); format: functional;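 further: cells exposed to compound for about 90 hours before reading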
[15] = target: 72 kDa type IV collagenase (Homo sapiens, UniProt P08253); assay: Dose Response validation of uHTS RPN11 inhibitor hits using a MMP-2 Fluorescence assay.; format: functional
[16] = target: Prothrombin (Bos taurus, UniProt P00735); assay: thrombin inhibition, dose response, biochemical, fluorescence polarization, uHTS hits (AID 602369); format: functional
[17] = target: T3, Apoptotic protease-activating factor 1 (Homo sapiens, UniProt O14727); assay: SAR analysis of small molecule Activators of Apaf-1 in a Fluorescent assay.; format: functional; conditions: read-out: EC50_Mean;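 further: caspase-3 cleavage of fluorogenic Rh110 DEVD substrate downstream of apoptosome activation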
T3 sequence (O14727 whole entry): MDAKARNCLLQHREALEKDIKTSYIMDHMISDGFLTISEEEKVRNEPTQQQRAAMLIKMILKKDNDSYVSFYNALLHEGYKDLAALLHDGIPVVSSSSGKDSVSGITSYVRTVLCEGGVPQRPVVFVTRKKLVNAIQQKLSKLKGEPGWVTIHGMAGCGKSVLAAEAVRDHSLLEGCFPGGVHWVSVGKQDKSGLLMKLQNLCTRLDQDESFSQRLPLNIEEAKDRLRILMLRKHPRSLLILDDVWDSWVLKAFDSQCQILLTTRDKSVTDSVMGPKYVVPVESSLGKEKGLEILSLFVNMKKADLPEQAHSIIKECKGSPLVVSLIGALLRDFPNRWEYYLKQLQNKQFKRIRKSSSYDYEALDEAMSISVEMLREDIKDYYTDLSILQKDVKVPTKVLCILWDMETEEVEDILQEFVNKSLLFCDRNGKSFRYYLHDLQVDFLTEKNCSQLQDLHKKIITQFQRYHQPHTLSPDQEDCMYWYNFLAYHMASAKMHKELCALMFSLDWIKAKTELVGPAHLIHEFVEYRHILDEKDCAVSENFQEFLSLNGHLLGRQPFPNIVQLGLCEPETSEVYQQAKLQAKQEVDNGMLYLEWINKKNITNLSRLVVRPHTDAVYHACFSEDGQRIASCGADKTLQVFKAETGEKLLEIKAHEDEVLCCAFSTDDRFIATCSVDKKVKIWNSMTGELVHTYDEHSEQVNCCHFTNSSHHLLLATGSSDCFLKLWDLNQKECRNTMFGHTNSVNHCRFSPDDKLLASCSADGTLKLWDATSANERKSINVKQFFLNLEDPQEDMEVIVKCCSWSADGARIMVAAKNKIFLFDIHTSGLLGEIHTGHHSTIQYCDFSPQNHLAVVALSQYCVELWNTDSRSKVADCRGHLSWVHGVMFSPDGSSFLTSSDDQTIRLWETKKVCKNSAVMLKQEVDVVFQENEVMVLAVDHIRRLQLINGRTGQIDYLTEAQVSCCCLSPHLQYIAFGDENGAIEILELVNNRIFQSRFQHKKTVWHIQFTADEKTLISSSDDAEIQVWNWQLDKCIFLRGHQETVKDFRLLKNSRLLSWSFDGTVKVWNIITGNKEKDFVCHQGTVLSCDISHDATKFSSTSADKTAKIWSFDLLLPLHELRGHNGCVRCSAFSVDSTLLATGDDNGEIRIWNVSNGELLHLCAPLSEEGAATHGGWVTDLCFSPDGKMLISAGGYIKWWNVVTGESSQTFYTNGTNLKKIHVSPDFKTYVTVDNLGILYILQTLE

[18] = HEp-2 cell cytotoxicity, dose response, cytotoxicity control for RSV inhibitor project, HTS (AID 2410); format: functional; conditions: human respiratory syncytial virus
[19] = target: T4, Small ubiquitin-related modifier 1 (Homo sapiens, UniProt P63165); assay: inhibitors of SUMO1 partner interactions, dose response, biochemical, FRET (AID 624383); format: functional; conditions: read-out: IC50_Mean
[20] = target: T5, SUMO-activating enzyme (Homo sapiens, UniProt Q9UBT2); assay: SUMOylation inhibitor hit validation, confirmation, SUMOylation inhibitor project, biochemical, AlphaScreen (AID 2018); format: functional
[21] = target: T5, SUMO-activating enzyme; assay: inhibitors of in vitro SUMOylation cascade, primary screen, biochemical, HTRF, uHTS (AID 2006); format: protein-complex assay
[22] = target: DNA (cytosine-5)-methyltransferase 1 (Homo sapiens, UniProt P26358); assay: DNMT1 methyltransferase inhibitors, confirmation, biochemical, fluorescent molecular beacon (AID 602386); format: functional
[23] = target: T4, Small ubiquitin-related modifier 1; assay: inhibitors of SUMO1 peptide binding, dose response, biochemical, fluorescence polarization, uHTS hits (AID 624382); format: functional; conditions: read-out: IC50_Mean
[24] = system: HEK293; assay: cytotoxicity in HEK293T NF-kB-Luc cells, SAR follow-up, cytotoxicity control for NF-kB activator project, cell-based, resazurin fluorescence (AID 493251); format: functional; conditions: Homo sapiens

T4 sequence (P63165 whole entry): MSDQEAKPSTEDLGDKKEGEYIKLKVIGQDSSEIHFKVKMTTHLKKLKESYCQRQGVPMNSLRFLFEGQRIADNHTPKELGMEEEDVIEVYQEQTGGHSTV
T5 sequence (Q9UBE0 whole entry): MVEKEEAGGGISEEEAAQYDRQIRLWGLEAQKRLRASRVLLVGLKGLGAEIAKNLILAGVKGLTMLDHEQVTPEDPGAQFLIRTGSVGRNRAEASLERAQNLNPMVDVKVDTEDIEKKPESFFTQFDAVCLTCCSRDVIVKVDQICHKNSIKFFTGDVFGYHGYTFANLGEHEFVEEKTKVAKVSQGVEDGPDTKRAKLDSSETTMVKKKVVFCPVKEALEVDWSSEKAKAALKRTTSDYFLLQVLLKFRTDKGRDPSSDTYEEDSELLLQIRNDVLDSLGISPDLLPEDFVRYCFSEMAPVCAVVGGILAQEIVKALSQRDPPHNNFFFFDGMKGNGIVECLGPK
T5 sequence (Q9UBT2 whole entry): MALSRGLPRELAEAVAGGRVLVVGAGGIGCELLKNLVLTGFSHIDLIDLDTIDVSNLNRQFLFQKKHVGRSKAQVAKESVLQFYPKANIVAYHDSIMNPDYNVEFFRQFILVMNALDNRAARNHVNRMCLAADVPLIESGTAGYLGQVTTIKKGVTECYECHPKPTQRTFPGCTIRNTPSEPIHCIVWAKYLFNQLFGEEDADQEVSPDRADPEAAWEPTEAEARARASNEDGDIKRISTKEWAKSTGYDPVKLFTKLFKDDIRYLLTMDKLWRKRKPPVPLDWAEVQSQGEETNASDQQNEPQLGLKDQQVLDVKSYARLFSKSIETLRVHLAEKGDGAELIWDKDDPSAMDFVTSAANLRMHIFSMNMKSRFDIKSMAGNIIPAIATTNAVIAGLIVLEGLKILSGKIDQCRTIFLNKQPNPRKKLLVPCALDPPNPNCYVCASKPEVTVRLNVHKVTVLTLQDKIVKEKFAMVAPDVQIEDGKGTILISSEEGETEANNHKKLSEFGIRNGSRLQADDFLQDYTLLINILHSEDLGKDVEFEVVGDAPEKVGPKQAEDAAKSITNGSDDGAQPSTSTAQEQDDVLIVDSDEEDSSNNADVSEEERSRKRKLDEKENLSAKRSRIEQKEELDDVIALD
Chain of 72 kDa type IV collagenase (P08253 whole entry): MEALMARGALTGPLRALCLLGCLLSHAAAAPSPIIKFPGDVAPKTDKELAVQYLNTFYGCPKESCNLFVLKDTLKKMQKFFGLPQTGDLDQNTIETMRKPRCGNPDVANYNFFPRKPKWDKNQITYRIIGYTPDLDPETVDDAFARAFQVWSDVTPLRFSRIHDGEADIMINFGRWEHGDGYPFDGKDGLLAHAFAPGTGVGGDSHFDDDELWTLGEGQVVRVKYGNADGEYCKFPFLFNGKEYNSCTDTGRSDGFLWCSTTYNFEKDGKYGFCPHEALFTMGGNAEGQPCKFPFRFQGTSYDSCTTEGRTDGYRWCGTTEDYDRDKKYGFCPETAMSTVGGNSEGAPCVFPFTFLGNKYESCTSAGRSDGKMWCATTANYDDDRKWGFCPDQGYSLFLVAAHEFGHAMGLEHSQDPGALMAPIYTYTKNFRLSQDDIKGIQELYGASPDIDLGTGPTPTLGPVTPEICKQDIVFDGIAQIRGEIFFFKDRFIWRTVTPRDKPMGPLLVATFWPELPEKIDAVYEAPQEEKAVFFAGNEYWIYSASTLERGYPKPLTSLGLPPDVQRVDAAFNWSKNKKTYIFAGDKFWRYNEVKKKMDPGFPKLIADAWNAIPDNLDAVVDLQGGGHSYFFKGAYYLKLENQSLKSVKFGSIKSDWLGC
Chain of 26S proteasome non-ATPase regulatory subunit 14 (O00487 whole entry): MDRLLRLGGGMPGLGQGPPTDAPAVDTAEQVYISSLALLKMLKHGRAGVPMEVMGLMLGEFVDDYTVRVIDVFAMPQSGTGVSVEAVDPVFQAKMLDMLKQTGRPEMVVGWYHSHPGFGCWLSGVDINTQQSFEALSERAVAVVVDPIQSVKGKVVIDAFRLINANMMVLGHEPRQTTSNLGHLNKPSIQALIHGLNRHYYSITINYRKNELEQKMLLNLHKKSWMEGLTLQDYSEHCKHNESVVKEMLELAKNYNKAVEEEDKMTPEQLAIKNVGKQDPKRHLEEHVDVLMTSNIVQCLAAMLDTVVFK
Chain of Melanocortin receptor 4 (P32245 whole entry): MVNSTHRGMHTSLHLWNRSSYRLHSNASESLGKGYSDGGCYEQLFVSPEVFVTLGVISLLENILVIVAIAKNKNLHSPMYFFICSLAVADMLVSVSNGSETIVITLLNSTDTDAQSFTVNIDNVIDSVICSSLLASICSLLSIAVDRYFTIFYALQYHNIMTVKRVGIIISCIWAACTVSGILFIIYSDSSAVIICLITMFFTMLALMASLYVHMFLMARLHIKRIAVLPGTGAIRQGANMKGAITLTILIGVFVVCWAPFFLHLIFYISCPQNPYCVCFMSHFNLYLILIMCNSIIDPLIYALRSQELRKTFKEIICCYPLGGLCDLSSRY
Chain of DNA repair and recombination protein RAD54-like (Q92698 whole entry): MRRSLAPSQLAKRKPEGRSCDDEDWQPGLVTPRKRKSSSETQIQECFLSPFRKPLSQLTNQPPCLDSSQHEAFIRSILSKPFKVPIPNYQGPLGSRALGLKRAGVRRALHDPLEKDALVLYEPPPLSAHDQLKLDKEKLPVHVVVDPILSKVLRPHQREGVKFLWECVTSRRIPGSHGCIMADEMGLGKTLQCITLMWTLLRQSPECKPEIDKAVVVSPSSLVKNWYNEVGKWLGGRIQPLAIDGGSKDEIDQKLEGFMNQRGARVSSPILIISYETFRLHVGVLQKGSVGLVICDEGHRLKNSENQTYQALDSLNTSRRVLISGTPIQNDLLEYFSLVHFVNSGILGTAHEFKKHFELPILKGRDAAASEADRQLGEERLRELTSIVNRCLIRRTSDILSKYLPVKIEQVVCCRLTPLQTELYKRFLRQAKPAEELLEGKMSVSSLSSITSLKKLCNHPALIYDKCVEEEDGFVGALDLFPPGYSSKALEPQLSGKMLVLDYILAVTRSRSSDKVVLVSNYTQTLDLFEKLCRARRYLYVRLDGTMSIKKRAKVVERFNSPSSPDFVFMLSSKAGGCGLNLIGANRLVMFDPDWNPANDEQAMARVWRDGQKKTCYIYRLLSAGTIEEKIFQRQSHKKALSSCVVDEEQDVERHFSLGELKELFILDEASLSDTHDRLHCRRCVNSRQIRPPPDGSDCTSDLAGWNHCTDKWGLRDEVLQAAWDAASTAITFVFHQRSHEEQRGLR
Chain of Tumor necrosis factor (P01375 whole entry): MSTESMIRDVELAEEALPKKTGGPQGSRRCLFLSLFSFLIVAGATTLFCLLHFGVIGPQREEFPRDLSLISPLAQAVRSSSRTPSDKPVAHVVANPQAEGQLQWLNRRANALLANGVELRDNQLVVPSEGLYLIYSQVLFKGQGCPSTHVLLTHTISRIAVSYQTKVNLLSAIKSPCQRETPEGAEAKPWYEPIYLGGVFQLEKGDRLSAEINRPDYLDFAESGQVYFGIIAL
Chain of DNA (cytosine-5)-methyltransferase 1 (P26358 whole entry): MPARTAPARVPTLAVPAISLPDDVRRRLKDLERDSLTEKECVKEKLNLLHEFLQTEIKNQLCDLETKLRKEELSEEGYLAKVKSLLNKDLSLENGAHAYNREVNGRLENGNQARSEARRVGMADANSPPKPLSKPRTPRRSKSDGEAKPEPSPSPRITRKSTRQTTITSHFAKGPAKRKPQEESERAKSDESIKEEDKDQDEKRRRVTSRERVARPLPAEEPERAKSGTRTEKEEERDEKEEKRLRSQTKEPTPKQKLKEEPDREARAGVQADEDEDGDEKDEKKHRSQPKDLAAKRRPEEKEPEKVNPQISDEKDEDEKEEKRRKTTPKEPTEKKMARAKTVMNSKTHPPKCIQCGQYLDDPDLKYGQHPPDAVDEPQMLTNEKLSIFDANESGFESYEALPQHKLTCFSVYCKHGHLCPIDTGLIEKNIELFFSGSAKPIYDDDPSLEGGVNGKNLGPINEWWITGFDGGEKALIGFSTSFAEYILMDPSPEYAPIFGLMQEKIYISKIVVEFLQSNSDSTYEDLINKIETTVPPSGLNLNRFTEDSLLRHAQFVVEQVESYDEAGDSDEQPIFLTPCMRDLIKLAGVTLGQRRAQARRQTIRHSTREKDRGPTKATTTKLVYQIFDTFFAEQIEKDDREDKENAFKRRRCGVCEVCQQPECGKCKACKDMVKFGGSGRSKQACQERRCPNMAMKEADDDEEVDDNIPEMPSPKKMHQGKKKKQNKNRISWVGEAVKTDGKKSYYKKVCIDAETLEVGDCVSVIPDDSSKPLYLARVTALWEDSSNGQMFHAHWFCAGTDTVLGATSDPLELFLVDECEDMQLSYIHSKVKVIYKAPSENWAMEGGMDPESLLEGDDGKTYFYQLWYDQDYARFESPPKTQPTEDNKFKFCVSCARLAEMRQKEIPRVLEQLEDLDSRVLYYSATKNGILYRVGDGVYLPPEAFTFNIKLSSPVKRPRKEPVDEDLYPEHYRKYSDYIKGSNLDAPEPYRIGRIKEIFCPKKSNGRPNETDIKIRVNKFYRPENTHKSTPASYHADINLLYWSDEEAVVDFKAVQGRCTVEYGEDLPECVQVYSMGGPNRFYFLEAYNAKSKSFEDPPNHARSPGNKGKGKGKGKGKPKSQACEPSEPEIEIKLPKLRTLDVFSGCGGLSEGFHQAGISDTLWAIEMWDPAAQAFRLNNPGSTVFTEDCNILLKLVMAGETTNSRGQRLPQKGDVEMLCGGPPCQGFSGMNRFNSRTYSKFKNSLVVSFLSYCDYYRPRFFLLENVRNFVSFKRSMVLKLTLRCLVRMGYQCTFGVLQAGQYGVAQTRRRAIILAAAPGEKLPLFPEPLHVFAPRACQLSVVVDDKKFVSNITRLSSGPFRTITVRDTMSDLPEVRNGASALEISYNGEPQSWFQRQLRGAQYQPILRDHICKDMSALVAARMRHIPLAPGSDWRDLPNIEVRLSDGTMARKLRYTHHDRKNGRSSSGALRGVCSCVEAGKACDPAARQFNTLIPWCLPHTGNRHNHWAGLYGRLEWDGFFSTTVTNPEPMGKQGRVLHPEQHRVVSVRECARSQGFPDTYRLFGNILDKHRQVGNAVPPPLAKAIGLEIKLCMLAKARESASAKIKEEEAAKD

SMILES: CCOc1ccc(Nc2nc(Cl)nc(N3CCN(c4ccc(OC)cc4)CC3)n2)cc1
IC50 [1]: > 64.6 µM (inactive) | IC50 [2]: > 64.6 µM (inactive)

SMILES: Cn1nccc1C(=O)NC1CCCc2c1cnn2-c1ccc(F)cc1F (centres undefined)
IC50 [3]: 0.712 µM (active) | IC50 [4]: > 20 µM (inactive) | IC50 [5]: 0.677 µM (active) | EC50 [6]: > 29.9 µM (inactive) | AC50 [7]: 1.44 µM (active) | IC50 [8]: > 80 µM (inactive) | IC50 [9]: 0.24 µM (active) | IC50 [10]: > 80 µM (inactive)

AC50 [11]: 42.5 µM (active)
SMILES: Cc1ccc2nc3c(c(N)c2c1)CCN3c1ccccc1

SMILES: O=C(/C=C/c1cccs1)N1CCC2(CC1)Oc1ccc(Cl)cc1C(=O)C21CC(c2cccnc2)=NO1 (centres undefined)
IC50 [1]: > 64.6 µM (inactive) | IC50 [2]: > 64.6 µM (inactive)

SMILES: O=C(N/N=C\c1ccc(-c2ccc([N+](=O)[O-])cc2)o1)C1COc2ccccc2O1 (centres undefined)
IC50 [12]: 28.2 µM (active) | EC50 [13]: 0.62 µM (active) | EC50 [14]: > 60 µM (not active) | IC50 [15]: > 100 µM (inactive) | IC50 [16]: 36.4 µM (active)

EC50 [17]: > 100 µM (inactive)
SMILES: O=C1CC2(CC(c3ccc(Cl)cc3)=NO2)C(=O)N1c1cccc(Cl)c1 (centres undefined)

IC50 [12]: 51.6 µM (active) | IC50 [15]: > 100 µM (inactive) | IC50 [16]: 82.7 µM (active)
SMILES: CCc1ccc(/C=C2\SC(=S)N(CCC(=O)N3CCN(C)CC3)C2=O)cc1
CC50 [18]: 18.6 µM (active)

SMILES: C/C(=N\NC(=O)c1cc(O)cc(O)c1)c1ccc(NC(=O)Cc2ccccc2)cc1
IC50 [19]: 12 µM (active) | IC50 [20]: 0.74 µM (active) | IC50 [21]: 9.77 µM (active) | IC50 [22]: 4.69 µM (active) | IC50 [23]: 50.1 µM (inactive)

SMILES: CC(C)(C)c1ccc(-c2noc(CCC(=O)NC3CC3)n2)cc1
IC50 [24]: > 80 µM (inactive)
